Reference: patent US20260207629A1, “COMPOSITION FOR IMPROVING SKIN COMPRISING CARNITINESALICYLATE AS AN ACTIVE INGREDIENT” (LG H&H CO., LTD., priority 2022, published 2026)

Columns and labels:
[1] = system: C. acnes ribotype 5 (strain HL043PA1); test: Minimum inhibitory concentration (MIC) against C. acnes; type: cell-based; conditions: Cutibacterium acnes; C. acnes ribotype 5 strain HL043PA1, 72 h incubation, OD600, growth inhibited by more than 90%
Description: The minimum inhibitory concentrations (MICs) of CA-SA and magnolol against C. acnes were measured and compared with an antibiotic (clindamycin) and non-antibiotic agents (benzoyl peroxide and salicylic acid).
C. acnes ribotype 5 (strain HL043PA1) was cultured in a reinforced Clostridial broth medium (BD Diagnostics, Franklin Lakes, NJ) in an anaerobic environment (37° C., 175 rpm). Thereafter, each sample was dissolved in water or dimethyl sulfoxide (DMSO) and serially diluted two-fold, and 7.5 μL of the resulting solution was added to 142.5 μL of a bacterial suspension containing 7.5×10^5 CFU/mL, and incubated for 72 h. Thereafter, turbidity (OD600) was measured (Synergy 2 Multi-Mode Microplate Reader (BioTek Instrument, Winooski, VT)) to determine the MIC that inhibited bacterial growth by more than 90%.

SZ95 cells = test: Lipid production inhibition in testosterone-treated SZ95 cells (Nile red); type: cell-based; conditions: magnolol 0.5 μg/ml, 48 h, vs positive control
Description: It was evaluated whether CA-SA and/or magnolol could control sebum secretion by inhibiting lipid production.
SZ95 cells, which are […] sebaceous cells, were cultured and maintained in a humidified atmosphere containing 5% CO2 and 95% air at 37° C. The medium used was Dulbecco's Modified Eagle Medium (DMEM)/Ham's F12 medium (Gibco) supplemented with 10% fetal bovine serum (FBS) and 5 ng/ml recombinant human epidermal growth factor (Invitrogen; Thermo Fisher, Waltham MA). After performing sub-confluent culture, cells were harvested with 0.05% trypsin-ethylenediaminetetraacetic acid (EDTA) (Gibco) and passaged, and cells obtained from the second passage were used.
The cells were seeded at 1×10^5 cells per well in a 24-well plate (Greiner, Frickenhausen, Germany) and cultured at 37° C. and 5% CO2 for 24 h. Thereafter, the cells were treated with 2×10^−8 M testosterone for 24 h to stimulate lipid production. […]
The well plate was covered with aluminum foil to block light, and fluorescence was measured at Ex/Em=550/580 nm using a microplate reader (BioTek Instruments, Inc.). The percentage value of the absolute fluorescence unit compared to the negative control group was used as the result value. Thereafter, the reduction value of the sample treatment group compared to the positive control group was calculated and is shown in Table 2.

MMP-1 = test: Inhibition of MMP-1 expression induced by C. acnes lysate in HaCaT cells (ELISA); type: cell-based, human; conditions: magnolol 4 μg/ml, 4 h pretreatment, C. acnes lysate 30 min, vs positive control
Description: (§1) A human epidermal keratinocyte cell line (HaCaT cells) was sub-cultured at 37° C. in a humidified atmosphere containing 5% CO2 and 95% air. The medium used was DMEM containing 10% FBS (Gibco; Thermo Fisher, Waltham MA), penicillin (100 U/ml, Gibco), and streptomycin ([…], Gibco). Separately, the acne pathogen C. acnes ribotype 5 (Strain HL043PA1) (1.36×10^9 CFU/ml, OD=1.7) was cultured to prepare a C. acnes lysate. The C. acnes lysate was used to induce the expression of MMP-1 and VEGF in HaCaT cells.
(§2) Thereafter, the C. acnes lysate and the medium were mixed at a mass ratio of 3:7, and the resulting mixture was applied to HaCaT cells for 30 minutes. The supernatant was collected, and the concentrations of MMP-1 and VEGF were measured by enzyme-linked immunosorbent assay (ELISA) (R&D Systems Inc., Minneapolis, MN) using the manufacturer's protocol. […] The experimental group treated only with the C. acnes lysate was set as the positive control group, and the reduction value of the sample treatment group compared to the positive control group was calculated and is shown in Table 3. […]
(§3) Colby Equation: E=(A+B)−(A*B/100); E: predicted value; A: efficacy of active ingredient A; B: efficacy of active ingredient B. When the actual measurement value is greater than the predicted value, it is determined that there is a synergistic effect.

VEGF = test: Inhibition of VEGF expression induced by C. acnes lysate in HaCaT cells (ELISA); type: cell-based, human; conditions: magnolol 4 μg/ml, 4 h pretreatment, C. acnes lysate 30 min, vs positive control
Description: as §1, §2, §3

stratum corneum (SC) = test: Stratum corneum softening, tape stripping test on volunteer's skin; type: in vivo, human; conditions: magnolol 0.2 mg/ml, 50 μl solution on skin for 3 h, SC protein increase relative to control
Description: To evaluate the softening efficacy on the stratum corneum (SC) of CA-SA and magnolol, a tape stripping test was performed on the SC.
After marking an application site on a volunteer's skin in advance, 50 μl of a solution including CA-SA and/or magnolol at the concentration shown in Table 4 was applied, and after three hours the skin surface was wiped to remove any remaining substances. A solution that included none of the evaluated substances was used as a control. A D-squame adhesive tape disk (CuDerm, Dallas, TX) was attached to the test site, and a cylindrical weight was used to apply a pressure of 150 g/cm^2 for three seconds, and then the pressure was removed and the tape was removed from the skin. Three tape strips were obtained from each marked site.
After collecting the tape strips in a polystyrene petri dish (Thermo Fisher), in order to perform keratinolysis quantification, 1 ml of 1 M NaOH was added to each petri dish and the dish was shaken for two hours. Thereafter, 75 μl of the solution was transferred to three wells (96-well plate, Corning), and each was neutralized with an equivalent volume of 1 M HCl. […] After 15 minutes, the optical density at 595 nm (OD 595 nm) was measured using an empty well as a correction value, and the amount of SC protein was quantified using a γ-globulin standard (Bio-Rad). […]

[2] = system: erythema induced by 1% sodium dodecyl sulfate (SDS); test: Skin erythema recovery after SDS erythema induction (Mexameter erythema index); type: in vivo, human; conditions: emulsion with magnolol 0.02% by weight, twice a day for 12 days, forearm, vs vehicle application group
Description: To evaluate the erythema recovery efficacy, an erythema index was evaluated before erythema induction, after erythema induction, and 12 days after product use in nine volunteers aged 25 to 35 years. Erythema was induced by applying 1% sodium dodecyl sulfate (SDS) dilution to the forearm for 24 hours, and an emulsion comprising CA-SA 5% by weight of, an emulsion comprising magnolol 0.02% by weight of, an emulsion comprising 5% CA-SA and 0.02% magnolol by weight, and an emulsion containing neither CA-SA nor magnolol (vehicle) was repeatedly applied to the same area twice a day, in the morning and evening, for 12 days.
The erythema index was measured using a Mexameter (MX 18, Courage+Khazaka electronic GmbH, Germany). The erythema index recovery rate was calculated using the following formula, and the effect was compared in terms of the percentage value increase in the erythema index recovery rate of the emulsion application group including each sample relative to the erythema index recovery rate of the vehicle application group (relative recovery rate).
In order to confirm the synergistic effect of CA-SA and magnolol, the predicted values (Colby values) and the actual measurement values were compared using the Colby Equation in the same manner as in Experimental Example 3, and the results are shown in Table 5.

O=C(OOC(=O)c1ccccc1)c1ccccc1 [Benzoyl peroxide, benzoyl peroxide]
MIC [1]: 2500 µg/mL

CCC[C@@H]1C[C@@H](C(=O)N[C@@H]([C@H]2O[C@H](SC)[C@H](O)[C@@H](O)[C@H]2O)[C@H](C)Cl)N(C)C1 [Clindamycin, clindamycin]
MIC [1]: 156 µg/mL

C=CCc1ccc(O)c(-c2cc(CC=C)ccc2O)c1 [Magnolol, magnolol]
Reduction value (lipid production) (SZ95 cells): 3.8% | MMP-1 reduction value (MMP-1): 33.6% | VEGF reduction value (VEGF): 21.2% | SC exfoliation rate (stratum corneum (SC)): −22.3% | Relative recovery rate (erythema index) [2]: 16.2%

O=C(O)c1ccccc1O [Salicylic acid, salicylic acid]
MIC [1]: 4000 to 8000 µg/mL
